Values joined by “and” are separate entries in the source; they are usually repeats but may differ in a detail not shown here. Identical values can stand only once. Like-named read-outs stand apart in the source and are kept apart here.
Columns and labels:
[1] = test system: soybean plants containing DMO-encoding polynucleotide construct (Events 1-5)
Description: Non-transgenic and transgenic soybean seeds were planted around the beginning of the growing season at the time of optimum growth conditions depending on soil moisture, temperature, and seeding depth. […] The design details were as follows: 6 locations, 2 replications/location, 2 rows/plot, row length 12 feet (+3 ft alley), 9 seeds/foot, 108 seeds/row, 5 events (Events 1-4 and a fifth event that was segregating); and 4 treatments as shown below in Table 5. In all 240 plots were planted at 6 locations (40 per location).
Four non-transgenic border rows were planted all around the trial using a known commercial line such as A3525. Optimum production and management practices known in the art were followed. […] The field was irrigated as needed according to standard practices.
Seed planting and pre-emergence treatment were carried out approximately one-month apart in late spring in Monmouth, Ill.

[2] = test system: soybean plants transformed with the DMO-encoding polynucleotide construct (Events 1-4); conditions: early pre-emergence; highest rate 5040 g/ha, 4.5 lb/acre, 9× labeled rate
Procedure: Transgenic soybean plants were obtained by Agrobacterium transformation of soybean cotyledonary nodes using standard procedures and a binary vector containing the DMO-encoding polynucleotide given as SEQ ID NO:7, which encodes the polypeptide of SEQ ID NO:8. Four transgenic soybean events were prepared and designated Events 1-4. […] Non-transgenic soybean plants were used as controls.
Transgenic and control soybean seeds were planted into 3.5-inch square plastic pots containing Redi-earth™ (Scotts-Siena Horticultural Products Co., Marysville, Ohio). […] The pots were placed on capillary matting in 35 inch×60 inch fiberglass watering trays for overhead and/or sub-irrigation for the duration of the test period so as to maintain optimum soil moisture for plant growth and were fertilized with Osmocote (14-14-14 slow release; Scotts-Siena Horticultural Products Co., Marysville, Ohio) at the rate of 100 gm/cu.ft. to sustain plant growth for the duration of greenhouse trials. […]
Treated plants in greenhouse trials were visually assessed at a particular day after treatment (DAT) for injury on a scale of 0 to 100 percent relative to untreated control plants, with zero representing “no” injury and 100% representing “complete” injury or death. Data were collected and analyzed using suitable statistical methods.

Marestail Resistant (KY) = assay: Dicamba, glyphosate and their combination on marestail; type: in vivo, Conyza canadensis; conditions: dicamba formulation 40 g/ha
[3] = Event 1, Post at V3: 1.5 lb/acre 4 weeks after planting
[4] = Event 1, Pre & Post: 1.5 lb/acre at planting and 1.5 lb/acre 4 weeks after planting
[5] = Event 1, Pre at sowing: 1.5 lb/acre at planting
[6] = Event 2, Post at V3: 1.5 lb/acre 4 weeks after planting
[7] = Event 2, Pre & Post: 1.5 lb/acre at planting and 1.5 lb/acre 4 weeks after planting
[8] = Event 2, Pre at sowing: 1.5 lb/acre at planting
[9] = Event 3, Post at V3: 1.5 lb/acre 4 weeks after planting
[10] = Event 3, Pre & Post: 1.5 lb/acre at planting and 1.5 lb/acre 4 weeks after planting
[11] = Event 3, Pre at sowing: 1.5 lb/acre at planting
[12] = Event 4, Post at V3: 1.5 lb/acre 4 weeks after planting
[13] = Event 4, Pre & Post: 1.5 lb/acre at planting and 1.5 lb/acre 4 weeks after planting
[14] = Event 4, Pre at sowing: 1.5 lb/acre at planting
[15] = Event 5 (segregating), Post at V3: 1.5 lb/acre 4 weeks after planting
[16] = Event 5 (segregating), Pre & Post: 1.5 lb/acre at planting and 1.5 lb/acre 4 weeks after planting
[17] = Event 5 (segregating), Pre at sowing: 1.5 lb/acre at planting

COc1c(Cl)ccc(Cl)c1C(=O)O [dicamba, 3,6-dichloro-o-anisic acid]
% GR 6/27 [1, 3]: 0% | % GR 7/5 [1, 3]: 0% | % Inj 6/7 [1, 3]: 0% | % Inj 6/13 [1, 3]: 0% | % Inj 6/20 [1, 3]: 0% | % Inj 6/27 [1, 3]: 5% and 7% | % Inj 7/5 [1, 3]: 0% | % GR 6/27 [1, 4]: 0% and 3% | % GR 7/5 [1, 4]: 0% | % Inj 6/7 [1, 4]: 0% | % Inj 6/13 [1, 4]: 0% and 2% | % Inj 6/20 [1, 4]: 0% and 2% | % Inj 6/27 [1, 4]: 5% | % Inj 7/5 [1, 4]: 0% | % GR 6/27 [1, 5]: 0% | % GR 7/5 [1, 5]: 0% | % Inj 6/7 [1, 5]: 0% | % Inj 6/13 [1, 5]: 0% and 2% | % Inj 6/20 [1, 5]: 0% | % Inj 6/27 [1, 5]: 1% and 2% | % Inj 7/5 [1, 5]: 0% | Dead or Stunted [1, 5]: 0 | % GR 6/27 [1, 6]: 0% | % GR 7/5 [1, 6]: 0% | % Inj 6/7 [1, 6]: 0% | % Inj 6/13 [1, 6]: 0% | % Inj 6/20 [1, 6]: 0% | % Inj 6/27 [1, 6]: 3% | % Inj 7/5 [1, 6]: 0% and 2% | % GR 6/27 [1, 7]: 0% | % GR 7/5 [1, 7]: 0% | % Inj 6/7 [1, 7]: 0% | % Inj 6/13 [1, 7]: 0% | % Inj 6/20 [1, 7]: 0% | % Inj 6/27 [1, 7]: 1% and 2% | % Inj 7/5 [1, 7]: 2% and 0% | Dead or Stunted [1, 7]: 0 | % GR 6/27 [1, 8]: 0% | % GR 7/5 [1, 8]: 0% | % Inj 6/7 [1, 8]: 0% | % Inj 6/13 [1, 8]: 0% | % Inj 6/20 [1, 8]: 0% | % Inj 6/27 [1, 8]: 5% and 2% | % Inj 7/5 [1, 8]: 0% | Dead or Stunted [1, 8]: 0 | % GR 6/27 [1, 9]: 3% and 0% | % GR 7/5 [1, 9]: 0% | % Inj 6/7 [1, 9]: 0% | % Inj 6/13 [1, 9]: 0% | % Inj 6/20 [1, 9]: 0% | % Inj 6/27 [1, 9]: 3% and 5% | % Inj 7/5 [1, 9]: 0% and 3% | Dead or Stunted [1, 9]: 0 | % GR 6/27 [1, 10]: 0% | % GR 7/5 [1, 10]: 0% | % Inj 6/7 [1, 10]: 0% | % Inj 6/13 [1, 10]: 0% and 2% | % Inj 6/20 [1, 10]: 0% | % Inj 6/27 [1, 10]: 3% | % Inj 7/5 [1, 10]: 2% and 0% | Dead or Stunted [1, 10]: 0 | % GR 6/27 [1, 11]: 0% | % GR 7/5 [1, 11]: 0% | % Inj 6/7 [1, 11]: 0% | % Inj 6/13 [1, 11]: 4% and 2% | % Inj 6/20 [1, 11]: 0% | % Inj 7/5 [1, 11]: 0% and 3% | Dead or Stunted [1, 11]: 0 | % GR 6/27 [1, 12]: 0% | % GR 7/5 [1, 12]: 0% | % Inj 6/7 [1, 12]: 0% | % Inj 6/13 [1, 12]: 0% | % Inj 6/20 [1, 12]: 0% | % Inj 6/27 [1, 12]: 3% | % Inj 7/5 [1, 12]: 0% | Dead or Stunted [1, 12]: 0 | % GR 6/27 [1, 13]: 8% and 3% | % GR 7/5 [1, 13]: 2% and 0% | % Inj 6/7 [1, 13]: 0% | % Inj 6/13 [1, 13]: 0% and 1% | % Inj 6/20 [1, 13]: 0% | % Inj 6/27 [1, 13]: 3% | % Inj 7/5 [1, 13]: 2% and 0% | Dead or Stunted [1, 13]: 0 | % GR 6/27 [1, 14]: 0% | % GR 7/5 [1, 14]: 0% | % Inj 6/7 [1, 14]: 0% | % Inj 6/13 [1, 14]: 3% and 4% | % Inj 6/20 [1, 14]: 0% | % Inj 6/27 [1, 14]: 5% and 2% | % Inj 7/5 [1, 14]: 0% | Dead or Stunted [1, 14]: 0 | % GR 6/27 [1, 15]: 0% and 5% | % GR 7/5 [1, 15]: 0% | % Inj 6/7 [1, 15]: 0% | % Inj 6/13 [1, 15]: 0% | % Inj 6/20 [1, 15]: 0% | % Inj 6/27 [1, 15]: 7% and 5% | % Inj 7/5 [1, 15]: 2% | Dead or Stunted [1, 15]: 15 | % GR 6/27 [1, 16]: 5% and 0% | % GR 7/5 [1, 16]: 0% | % Inj 6/7 [1, 16]: 0% | % Inj 6/13 [1, 16]: 15% and 10% | % Inj 6/20 [1, 16]: 10% | % Inj 6/27 [1, 16]: 3% and 1% | % Inj 7/5 [1, 16]: 0% | Dead or Stunted [1, 16]: 23 and 20 | % GR 6/27 [1, 17]: 0% | % GR 7/5 [1, 17]: 0% | % Inj 6/7 [1, 17]: 0% | % Inj 6/13 [1, 17]: 15% and 8% | % Inj 6/20 [1, 17]: 15% and 10% | % Inj 6/27 [1, 17]: 5% and 2% | % Inj 7/5 [1, 17]: 0% | Dead or Stunted [1, 17]: 24 and 14 | injury in field, overall ([1]; pre- and post-emergence applications of dicamba, all transgenic soybean plants): no or very little injury | injury to the transgenic plants [2]: less than 10% | % Injury (18 DAT) (Marestail Resistant (KY)): about 52%
